From publication PMC12332667, “Role of Structural Modifications in Peptidomimetic Compounds as Potential Antimicrobial Agents against Staphylococcus aureus and Streptococcus pyogenes: Balancing Bioavailability, Safety, and Antimicrobial Activity” (ACS Omega, 2025)
Converted amounts (≈) assume the structure as drawn.

Assays:
S. aureus ATCC 43300 = assay: MIC/MBC broth microdilution, S. aureus; type: cell-based, Staphylococcus aureus; conditions: S. aureus
S. pyogenes ATCC 19615 = assay: MIC/MBC broth microdilution, S. pyogenes; type: cell-based, Streptococcus pyogenes; conditions: S. pyogenes
Description: (§1) S. aureus (ATCC 29213),S. pyogenes (ATCC 19615),Streptococcus agalactiae (ATCC 27956),Escherichia coli (ATCC 25922),Proteus vulgaris (ATCC 6896),K. pneumoniae (ATCC 700603) andP. aeruginosa (ATCC 10145) reference strains, as well asStaphylococcus cohnii, Enterococcus faecalis, Staphylococcus schleiferi, Staphylococcus intermedius and Streptococcus mutans clinical isolates, were used to test the antibacterial activity of the peptidomimetics. Bacteria were aerobically cultured for 18 h at 37 °C in plates with sterilized brain heart infusion (BHI) broth (Sigma-Aldrich, USA) media mixed with bacteriological agar (Sigma-Aldrich, USA) using the streak plate method. After 18 h, BHI broth was inoculated to 0.5 on the McFarland scale and diluted to approximately 10^5 CFU/mL. To achieve a final stock concentration of 1024 μg/mL, the peptidomimetics were dissolved in sterile water, and 5–10% of absolute ethanol or dimethyl sulfoxide (DMSO) was added. The antibacterial activities were determined by using the standard broth microdilution method of the National Committee for Clinical Laboratory Standards. The process involved adding serially diluted peptidomimetics to consecutive wells of a 96-well microtiter plate (Brand, Germany) holding media with microorganisms. The inoculated plates treated with peptides were then placed in an incubator at 37 °C for 18 h. The MIC value was determined as the lowest concentration of peptidomimetic at which there was no obvious growth (equal or more than 90% of the untreated sample). […] The lowest concentration yielding growth in no more than 3 colonies, corresponding to at least a 99.9% kill rate, was taken as MBC. Each biological replicate included control wells with the addition of water, DMSO, and ethanol as respective solvent controls. All experiments were conducted with consistent adherence to growth and sterility controls and were performed at least in technical triplicate with three biological repeats.

S. cohnii c.i. = assay: MIC/MBC broth microdilution, S. cohnii; type: cell-based, Staphylococcus cohnii
Description: as §1

E. faecalis c.i. = assay: MIC/MBC broth microdilution, E. faecalis; type: cell-based, Enterococcus faecalis
Description: as §1

S. schleiferi c.i. = assay: MIC/MBC broth microdilution, S. schleiferi; type: cell-based, Staphylococcus schleiferi
Description: as §1

S. agalactiae ATCC 27956 = assay: MIC/MBC broth microdilution, S. agalactiae; type: cell-based, Streptococcus agalactiae; conditions: S. agalactiae
Description: as §1

S. mutans c.i. = assay: MIC/MBC broth microdilution, S. mutans; type: cell-based, Streptococcus mutans
Description: as §1

E. coli ATCC 25922 = assay: MIC/MBC broth microdilution, E. coli; type: cell-based, Escherichia coli
Description: as §1

P. vulgaris ATCC 6896 = assay: MIC/MBC broth microdilution, P. vulgaris; type: cell-based, Proteus vulgaris
Description: as §1

[1] = test system: K. pneumoniae ATCC 700603; assay: MIC/MBC broth microdilution, K. pneumoniae; type: cell-based
Description: as §1

P. aeruginosa ATCC 10145 = assay: MIC/MBC broth microdilution, P. aeruginosa; type: cell-based
Description: as §1

[2] = Hydrophobicity by reverse-phase chromatography; type: physicochemical; conditions: acetonitrile content in the mobile phase at the retention time
From the text: Reverse-phase chromatography was employed to assess the hydrophobicity characteristics of the peptidomimetics. Hydrophobicity was quantified by determining the acetonitrile content in the mobile phase at the retention time of a peptidyl derivative (Table S2). The least hydrophobic compound (40% acetonitrile) was A-198, which aligns with the calculations of hydrophobicity by SwissADME and pkCSM (Table ). Next in the hydrophobicity sequence were A-197, A-220, A-219, A-174, and A-221, eluting with 42.5-43.9% of acetonitrile. Then there were followed by […], and A-179, with the acetonitrile percentage of 44.8-49.8. The compounds A-176, A-20, A-152, A-134, and A-210 needed over 50% of acetonitrile to be eluted from the column.

[3] = test system: immortalized human keratinocytes (HaCaT); assay: LDH cytotoxicity test, keratinocytes; type: cell-based; conditions: 48 h, 50-150 μg/mL
Description: (§2) In our study, we used two distinct cell types: immortalized human HaCaT keratinocytes (DKFZ, Heidelberg, Germany) and a human dermal fibroblast cell line (46BR.1N). […] Cultures were maintained in a humidified atmosphere with 5% CO2 at 37 °C in 25 cm^2 culture flasks with the medium replenished every 2 days. The condition of the cells was monitored using optical microscopy.
(§3) Cell death in immortalized human keratinocytes (HaCaT) and fibroblasts (46BR.1N) was measured by quantifying the lactate dehydrogenase (LDH) activity using a commercial kit (Roche, Switzerland). Cells were seeded in 96-well plates at a density of 5000 cells per well in DMEM high glucose medium supplemented with 10% FBS. After 24 h of incubation, the medium was replaced with serum-free medium containing various concentrations of peptidomimetics (50, 100, and 150 μg/mL). After 48 h, supernatants were collected for LDH analysis. Plate readings were taken spectrophotometrically using a 450 nm wavelength. Cell death measurements were normalized to an untreated control (0%), with 1% Triton X-100 detergent used as a positive control to induce maximum LDH release, indicating maximal cytotoxicity. Statistical significance was determined with a Mann–Whitney U test with a statistical significance p ≤ 0.05. Analysis was performed with Statistica software (Krakow, Poland) and graphs were prepared in GraphPad Prism (Boston, USA).

fibroblasts (46BR.1N) = assay: LDH cytotoxicity test, fibroblasts; type: cell-based; conditions: 48 h, 50-150 μg/mL
Description: as §2, §3

[4] = test system: immortalized human HaCaT keratinocytes; assay: XTT cell proliferation assay, keratinocytes; type: cell-based; conditions: XTT, 48 and 72 h, 0.01–150 μg/mL
Description: (§4) In our study, we used two distinct cell types: immortalized human HaCaT keratinocytes (DKFZ, Heidelberg, Germany) and a human dermal fibroblast cell line (46BR.1N). […] Cultures were maintained in a humidified atmosphere with 5% CO2 at 37 °C in 25 cm^2 culture flasks with the medium replenished every 2 days. The condition of the cells was monitored using optical microscopy. […] After 24 h of incubation, the medium was replaced with serum-free HG-DMEM containing appropriate concentrations of peptidomimetics. All solutions used in the experiments were prepared with double-distilled water or with the addition of ethanol under sterile conditions to ensure compatibility with the conditions of the bacteriological assay. For 72 h of incubation, half of the medium was replaced with fresh medium after 48 h, and cells were stimulated with peptides for a second time. The XTT cell proliferation assay was then performed according to the manufacturer’s instructions (Roche, Switzerland). Cells were treated with the peptides for either 48 or 72 h, followed by the addition of XTT reagent, and the plates were then incubated at 37 °C in a 5% CO2 environment for 4 h. Plate readings were taken using a standard plate reader at a wavelength of 490 nm (OD = 490 nm). […] Statistical significance was determined with a Mann–Whitney U test with statistical significance p ≤ 0.05. Analysis was performed with Statistica software, and graphs were prepared in GraphPad Prism.

[5] = test system: human dermal fibroblast cell line (46BR.1N); assay: XTT cell proliferation assay, fibroblasts; type: cell-based; conditions: XTT, 48 and 72 h, 0.01–150 μg/mL
Description: as §4

For CC(C)[C@@H](CNC(=O)/C=C/c1ccccc1)NC(=O)[C@H](Cc1c[nH]cn1)NC(=O)[C@H](CCCCN)NC(=O)OCc1ccccc1 [Compound A-174], which MBC (S. aureus ATCC 43300; H2O) is on record?
The MBC was 512 µg/mL (≈ 810 µM).

What about the MIC (S. aureus ATCC 43300; H2O) of the same molecule?
Its MIC is 256 µg/mL (≈ 405 µM).

What about the MBC (S. aureus ATCC 43300; water additive DMSO) of the same molecule?
Its MBC is 512 µg/mL (≈ 810 µM).

And the MIC (S. aureus ATCC 43300; water additive DMSO)?
The MIC was 512 µg/mL (≈ 810 µM).

What about the MBC (S. aureus ATCC 43300; water additive EtOH) of the same molecule?
The MBC was 512 µg/mL (≈ 810 µM).

What about the MIC (S. aureus ATCC 43300; water additive EtOH) of the same molecule?
The MIC was 512 µg/mL (≈ 810 µM).

And the MBC (S. pyogenes ATCC 19615; H2O)?
The MBC was 256 µg/mL (≈ 405 µM).

And the MBC (S. pyogenes ATCC 19615; water additive DMSO)?
Its MBC is 256 µg/mL (≈ 405 µM).

What about the MBC (S. pyogenes ATCC 19615; water additive EtOH) of the same molecule?
The MBC was 256 µg/mL (≈ 405 µM).

What about the MBC (S. cohnii c.i.; H2O) of the same molecule?
The MBC was 256 µg/mL (≈ 405 µM).

What about the MIC (S. cohnii c.i.; H2O) of the same molecule?
The MIC was 256 µg/mL (≈ 405 µM).

What about the MBC (S. cohnii c.i.; water additive DMSO) of the same molecule?
The MBC was 256 µg/mL (≈ 405 µM).

And the MBC (S. cohnii c.i.; water additive EtOH)?
Its MBC is 256 µg/mL (≈ 405 µM).

And the MIC (E. faecalis c.i.; H2O)?
The MIC was greater than 512 µg/mL.

What about the MIC (E. faecalis c.i.; water additive DMSO) of the same molecule?
The MIC was greater than 512 µg/mL.

And the MIC (E. faecalis c.i.; water additive EtOH)?
Its MIC is greater than 512 µg/mL.

What about the MIC (S. schleiferi c.i.; H2O) of the same molecule?
Its MIC is greater than 512 µg/mL.

What about the MIC (S. schleiferi c.i.; water additive DMSO) of the same molecule?
Its MIC is greater than 512 µg/mL.

And the MBC (S. schleiferi c.i.; water additive EtOH)?
Its MBC is 512 µg/mL (≈ 810 µM).

What about the MIC (S. schleiferi c.i.; water additive EtOH) of the same molecule?
Its MIC is 512 µg/mL (≈ 810 µM).

And the MBC (S. agalactiae ATCC 27956; H2O)?
Its MBC is 512 µg/mL (≈ 810 µM).

What about the MIC (S. agalactiae ATCC 27956; H2O) of the same molecule?
The MIC was 512 µg/mL (≈ 810 µM).

And the MBC (S. agalactiae ATCC 27956; water additive DMSO)?
The MBC was 512 µg/mL (≈ 810 µM).

What about the MIC (S. agalactiae ATCC 27956; water additive DMSO) of the same molecule?
Its MIC is 512 µg/mL (≈ 810 µM).

What about the MBC (S. agalactiae ATCC 27956; water additive EtOH) of the same molecule?
The MBC was 512 µg/mL (≈ 810 µM).

What about the MIC (S. agalactiae ATCC 27956; water additive EtOH) of the same molecule?
The MIC was 256 µg/mL (≈ 405 µM).

What about the MIC (S. mutans c.i.; H2O) of the same molecule?
Its MIC is greater than 512 µg/mL.

And the MIC (S. mutans c.i.; water additive DMSO)?
Its MIC is greater than 512 µg/mL.

And the MIC (S. mutans c.i.; water additive EtOH)?
The MIC was greater than 512 µg/mL.

What about the MIC (E. coli ATCC 25922; H2O) of the same molecule?
The MIC was greater than 512 µg/mL.

And the MIC (E. coli ATCC 25922; water additive DMSO)?
The MIC was greater than 512 µg/mL.

And the MIC (E. coli ATCC 25922; water additive EtOH)?
The MIC was greater than 512 µg/mL.

What about the MIC (P. vulgaris ATCC 6896; H2O) of the same molecule?
Its MIC is greater than 512 µg/mL.

What about the MIC (P. vulgaris ATCC 6896; water additive DMSO) of the same molecule?
The MIC was greater than 512 µg/mL.

And the MBC (P. vulgaris ATCC 6896; water additive EtOH)?
Its MBC is greater than 512 µg/mL.

And the MIC (P. vulgaris ATCC 6896; water additive EtOH)?
The MIC was 512 µg/mL (≈ 810 µM).

What about the MIC ([1]; H2O) of the same molecule?
Its MIC is greater than 512 µg/mL.

And the MIC ([1]; water additive DMSO)?
Its MIC is greater than 512 µg/mL.

What about the MIC ([1]; water additive EtOH) of the same molecule?
The MIC was greater than 512 µg/mL.

And the MIC (P. aeruginosa ATCC 10145; H2O)?
The MIC was greater than 512 µg/mL.

What about the MIC (P. aeruginosa ATCC 10145; water additive DMSO) of the same molecule?
The MIC was greater than 512 µg/mL.

What about the MBC (P. aeruginosa ATCC 10145; water additive EtOH) of the same molecule?
Its MBC is greater than 512 µg/mL.

And the MIC (P. aeruginosa ATCC 10145; water additive EtOH)?
The MIC was 512 µg/mL (≈ 810 µM).

What about the “% AcCN (acetonitrile required for elution from the column)” value [2] of the same molecule?
Its value is 42.9%.

And the “cytotoxicity (LDH), in words” value [3]?
Its value is “no cytotoxicity”.

And the “cytotoxicity (LDH), in words” value (fibroblasts (46BR.1N))?
The value was “no cytotoxicity”.

And the “effect on proliferation, in words” value [4]?
Its value is “did not exert any negative impact”.

And the “effect on proliferation, in words” value [5]?
Its value is “did not exert any negative impact”.
